Read-outs that look alike come from different tables or passages of the source.

The target in one assay is T1, androgen receptor (Homo sapiens, UniProt P10275).
T1 sequence (P10275 1-920): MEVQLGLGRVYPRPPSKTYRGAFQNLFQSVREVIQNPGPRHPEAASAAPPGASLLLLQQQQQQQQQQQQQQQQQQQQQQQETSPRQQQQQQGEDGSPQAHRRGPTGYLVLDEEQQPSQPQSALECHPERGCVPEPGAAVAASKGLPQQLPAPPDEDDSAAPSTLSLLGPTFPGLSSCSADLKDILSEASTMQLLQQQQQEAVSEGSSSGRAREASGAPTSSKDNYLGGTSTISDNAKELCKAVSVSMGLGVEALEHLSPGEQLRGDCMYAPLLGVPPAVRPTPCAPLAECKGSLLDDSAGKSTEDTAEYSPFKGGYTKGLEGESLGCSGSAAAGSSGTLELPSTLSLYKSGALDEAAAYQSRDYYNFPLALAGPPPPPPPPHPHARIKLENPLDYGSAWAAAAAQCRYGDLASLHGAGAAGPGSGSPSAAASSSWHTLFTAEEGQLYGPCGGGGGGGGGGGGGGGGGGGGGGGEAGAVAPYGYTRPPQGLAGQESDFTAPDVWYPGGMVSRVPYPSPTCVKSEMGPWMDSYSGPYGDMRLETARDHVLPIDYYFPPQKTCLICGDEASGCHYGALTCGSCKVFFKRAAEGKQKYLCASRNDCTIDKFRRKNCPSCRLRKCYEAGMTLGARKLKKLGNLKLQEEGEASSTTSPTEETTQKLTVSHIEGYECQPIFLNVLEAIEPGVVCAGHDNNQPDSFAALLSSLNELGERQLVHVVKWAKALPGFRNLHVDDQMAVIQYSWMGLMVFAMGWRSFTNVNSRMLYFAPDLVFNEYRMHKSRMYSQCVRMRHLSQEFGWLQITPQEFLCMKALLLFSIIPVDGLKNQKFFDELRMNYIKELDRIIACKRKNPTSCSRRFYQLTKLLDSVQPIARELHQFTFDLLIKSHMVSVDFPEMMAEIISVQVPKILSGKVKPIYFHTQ
The assay can be described thus: Androgen receptor binding test. The arrangement: expressed in transfected cells. As to the method: (§1) Using cytosol from progesterone receptor-expressing insect cells (Hi5), competitive binding to the progesterone receptor was determined from the ability to displace ^3H-progesterone as reference substance from the receptor.
3. Androgen Receptor Binding Test: […]

Assay [1] concerns the target T2, fusion protein from the PR-ligand-binding domain and a Gal4-transactivation domain (Homo sapiens, UniProt P06401).
T2 construct: expressed in transfected cells; host or cells: CHO K1 cells, stably transfected
The assay can be described thus: Progestational action by transactivation test (CHO K1 reporter cells). In kind it is cell-based. Conditions: for Emax: read-out: Progesterone receptor Agonism efficacy. As for the experimental part: 4. Determination of Progestational Action by Means of Transactivation Tests:
The culture medium used for culture of the cells used for the assay was DMEM (Dulbecco's Modified Eagle Medium: […] glucose; PAA, #E15-009) with 10% FCS (Biochrom, S0115, batch #615B), 4 mM L-glutamine, 1% penicillin/streptomycin, 1 mg/ml G418 and 0.5 μg/ml puromycin.
Reporter cell lines (CHO K1 cells stably transfected with a fusion protein from the PR-ligand-binding domain and a Gal4-transactivation domain and a reporter construct, which contained luciferase under the control of a Gal4-responsive promoter) were seeded at a density of 4×10^4 cells per well in white, opaque tissue culture plates each with 96 wells (PerkinElmer, #P12-106-017) and kept in culture medium with 3% DCC-FCS (serum treated with activated charcoal to remove interfering components contained in the serum). The test compounds were added eight hours later, and the cells were incubated with the compounds for 16 hours. The tests were carried out in triplicate. At the end of incubation the medium containing the effector was removed and replaced with lysis buffer. After luciferase assay substrate (Promega, #E1501) had been added, the 96-well plates were then put in a microplate luminometer (Pherastar, BMG Labtech), and the luminescence was measured. The IC50 values were evaluated using software for calculating dose-effect relations.

A further assay addresses T3, progesterone receptor (Homo sapiens, UniProt P06401).
T3 construct: made in house; host or cells: Hi5 insect cells (cytosol)
T3 sequence (P06401 1-933): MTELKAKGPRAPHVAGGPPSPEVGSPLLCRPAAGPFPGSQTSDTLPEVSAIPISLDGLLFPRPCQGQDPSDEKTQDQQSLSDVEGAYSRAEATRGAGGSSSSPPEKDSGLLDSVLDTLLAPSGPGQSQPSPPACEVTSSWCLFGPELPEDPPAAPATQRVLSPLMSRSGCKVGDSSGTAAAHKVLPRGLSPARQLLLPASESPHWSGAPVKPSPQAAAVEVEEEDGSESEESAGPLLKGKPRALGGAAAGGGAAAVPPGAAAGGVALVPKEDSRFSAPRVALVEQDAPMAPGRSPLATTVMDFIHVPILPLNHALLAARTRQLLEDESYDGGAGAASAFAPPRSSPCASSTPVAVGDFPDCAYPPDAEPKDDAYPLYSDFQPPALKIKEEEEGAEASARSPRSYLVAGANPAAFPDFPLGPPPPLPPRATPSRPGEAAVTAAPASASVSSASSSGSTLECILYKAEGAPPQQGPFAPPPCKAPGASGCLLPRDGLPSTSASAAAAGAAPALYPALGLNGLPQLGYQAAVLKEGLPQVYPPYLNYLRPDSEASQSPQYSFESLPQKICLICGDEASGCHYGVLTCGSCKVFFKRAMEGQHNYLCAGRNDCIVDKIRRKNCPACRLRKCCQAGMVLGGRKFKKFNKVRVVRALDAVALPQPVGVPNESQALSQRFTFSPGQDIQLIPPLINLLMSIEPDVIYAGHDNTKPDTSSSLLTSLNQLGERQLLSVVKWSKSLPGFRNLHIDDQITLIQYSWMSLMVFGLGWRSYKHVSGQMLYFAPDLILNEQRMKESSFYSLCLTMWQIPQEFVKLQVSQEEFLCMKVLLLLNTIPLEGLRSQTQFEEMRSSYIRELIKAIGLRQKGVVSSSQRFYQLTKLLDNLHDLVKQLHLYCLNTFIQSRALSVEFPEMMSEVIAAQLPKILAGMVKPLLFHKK
The assay can be described thus: Progesterone receptor binding test. To be noted: for Progesterone receptor (PR) Competition factor: CF 1 = affinity of progesterone, CF >1 lower affinity, <1 higher affinity; for CF PR/CF MR: ratio of competition factors CF(PR) and CF(MR). As for the experimental part:
1. Progesterone Receptor Binding Test:
as §1

Where [2] appears, read: reference substance 3H-testosterone, cytosol from AR-expressing insect cells (Hi5), read-out: Androgen receptor IC50.
Setting [3] is: CHO K1 reporter cells, 16 hours incubation, read-out: Progesterone receptor Agonism EC50.
The mark [4] stands for this setting: CHO K1 reporter cells, 16 hours incubation.
The mark [5] stands for this setting: displacement of 3H-progesterone, cytosol from PR-expressing insect cells (Hi5), read-out: Progesterone receptor (PR) IC50.

T2 sequence (P04386 1-147 partner limits assumed, one chain of several): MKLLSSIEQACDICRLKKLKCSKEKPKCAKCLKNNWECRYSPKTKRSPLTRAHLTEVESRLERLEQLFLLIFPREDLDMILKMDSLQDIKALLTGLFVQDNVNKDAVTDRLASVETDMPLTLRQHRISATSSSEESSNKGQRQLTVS

With `C[C@]12CC[C@H]3[C@@H](CCC4=C(Cl)C(=O)CC[C@@H]43)[C@@H]1[C@H]1C[C@H]1[C@@]21C=CC(=O)O1` [Example 18, 4-Chloro-17β-hydroxy-15α,16α-methylene-19-nor-17α-pregna-4,20(Z)-dien-3-one-21-carboxylic acid γ-lactone], the IC50 (as a rule, the midpoint of a concentration-inhibition curve) on androgen receptor turned out to be 140 nM. In addition, in assay [1], it took 810 nM to reach a half-maximal effect (EC50). In addition, the Emax in assay [1] (CHO-K1, 16 h) came out at 25.7%. For the same molecule, on progesterone receptor, the IC50 stood at 400 nM, the “Progesterone receptor (PR) Competition factor” value (shortened to “Progesterone receptor”) is given as 17.24 and the “CF PR/CF MR” value turned out to be 0.49.
Consider `CC[C@]12CC[C@H]3[C@@H](C=CC4=CC(=O)CC[C@@H]43)[C@@H]1[C@@H]1C[C@@H]1[C@@]21C=CC(=O)O1` [Example 3, 17β-Hydroxy-18-methyl-15β,16β-methylene-19-nor-17α-pregna-4,6,20(Z)-trien-3-one-21-carboxylic acid γ-lactone], for which, on androgen receptor, the IC50 stood at 1300 nM. Moreover, the EC50 (commonly the midpoint of the concentration-response curve) in assay [1] came out at 1.4 nM. Further, the Emax in assay [1] (CHO-K1, 16 h) stood at 34.2%. Besides, on progesterone receptor, the IC50 was found to be 72 nM, the “Progesterone receptor” value worked out at 2.72 and the “CF PR/CF MR” value was found to be 1.81.
Consider `CC[C@]12CC[C@H]3[C@H]([C@@H]1[C@@H]1C[C@@H]1[C@@]21C=CC(=O)O1)[C@H](C)CC1=CC(=O)CC[C@@H]13` [Example 4A, 7α,18-Bismethyl-17β-hydroxy-15β,16β-methylene-19-nor-17α-pregna-4,20(Z)-dien-3-one-21-carboxylic acid γ-lactone], for which, at androgen receptor, the IC50 came to 60 nM. The EC50 in assay [1] was 39 nM. The Emax in assay [1] (CHO-K1, 16 h) came to 71.1%. Moreover, at progesterone receptor, the IC50 came out at 48 nM, the “Progesterone receptor” value was determined as 2.66 and the “CF PR/CF MR” value stood at 4.43.
Consider `C[C@]12CC[C@H]3[C@@H](C=CC4=CC(=O)CC[C@@H]43)[C@@H]1[C@H]1C[C@H]1[C@@]21C=CC(=O)O1` [Example 13, 17β-Hydroxy-15α,16α-methylene-19-nor-17α-pregna-4,6,20(Z)-trien-3-one-21-carboxylic acid γ-lactone], for which the IC50 at androgen receptor (setting [2]) came out at 5100 nM. In addition, the EC50 in assay [1] (setting [3]) was 150 nM. In addition, in assay [1] (setting [4]), the Emax came to 37.1%. Besides, at progesterone receptor, the “Progesterone receptor” value was found to be 7.89 and the “CF PR/CF MR” value is given as 4.93. In addition, the IC50 at progesterone receptor (setting [5]) turned out to be 190 nM.
In turn, `CC[C@@H]1CC2=CC(=O)CC[C@@H]2[C@H]2CC[C@@]3(C)[C@@H]([C@H]4C[C@H]4[C@@]34C=CC(=O)O4)[C@H]12` [Example 15A, 17β-Hydroxy-7α-ethyl-15α,16α-methylene-19-nor-17α-pregna-4,20(Z)-dien-3-one-21-carboxylic acid γ-lactone] showed an IC50 at androgen receptor of 60 nM. Further, the EC50 in assay [1] came out at 92 nM. In addition, the Emax in assay [1] (CHO-K1, 16 h) came out at 39.5%. On progesterone receptor, the IC50 was determined as 200 nM, the “Progesterone receptor” value is listed as 8.36 and the “CF PR/CF MR” value worked out at 10.45.
In turn, `C=C[C@@H]1CC2=CC(=O)CC[C@@H]2[C@H]2CC[C@@]3(CC)[C@@H]([C@@H]4C[C@@H]4[C@@]34C=CC(=O)O4)[C@@H]21` [Example 6A, 17β-Hydroxy-7α-vinyl-18-methyl-15β,16β-methylene-19-nor-17α-pregna-4,20(Z)-dien-3-one-21-carboxylic acid γ-lactone] came in with an IC50 on androgen receptor of 45 nM. In assay [1], this molecule gave an EC50 of 140 nM. Also, the Emax in assay [1] (CHO-K1, 16 h) came to 35.2%. At progesterone receptor, the IC50 was found to be 120 nM, the “Progesterone receptor” value is reported as 4.85 and the “CF PR/CF MR” value is on record as 3.23.
Turning to `CC[C@]12CC[C@H]3[C@@H]([C@H]4C[C@H]4C4=C(Cl)C(=O)CC[C@@H]43)[C@@H]1[C@@H]1C[C@@H]1[C@@]21C=CC(=O)O1` [Example 8, 6β,7β;15β,16β-Bismethylene-4-chloro-17β-hydroxy-18-methyl-19-nor-17α-pregna-4,20(Z)-dien-3-one-21-carboxylic acid γ-lactone], the IC50 on androgen receptor (setting [2]) was determined as 4300 nM. In assay [1] (setting [4]), the Emax was 9.8%. Also, at progesterone receptor, the “Progesterone receptor” value is given as 31.12 and the “CF PR/CF MR” value is 1.07. Moreover, the IC50 at progesterone receptor (setting [5]) worked out at 740 nM.
As for `C[C@]12CC[C@H]3[C@@H](C[C@@H](CO)C4=CC(=O)CC[C@@H]43)[C@@H]1[C@@H]1C[C@@H]1[C@@]21C=CC(=O)O1` [Example 21, 17β-Hydroxy-6β-hydroxymethylene-15β,16β-methylene-19-nor-17α-pregna-4,20(Z)-dien-3-one-21-carboxylic acid γ-lactone], the results for the IC50 at androgen receptor (setting [2]) and on progesterone receptor (setting [5]) were 1000 nM and 4800 nM, respectively. Besides, the EC50 in assay [1] (setting [3]) is 780 nM. Besides, the Emax in assay [1] (setting [4]) worked out at 21%. The “Progesterone receptor” value on progesterone receptor is given as 159.27.
Consider `C=C[C@@H]1CC2=CC(=O)CC[C@@H]2[C@H]2CC[C@@]3(C)[C@@H]([C@H]4C[C@H]4[C@@]34C=CC(=O)O4)[C@@H]21` [Example 16A, 17β-Hydroxy-7α-vinyl-15α,16α-methylene-19-nor-17α-pregna-4;20(Z)-dien-3-one-21-carboxylic acid γ-lactone], for which the IC50 on androgen receptor worked out at 39 nM. The molecule further had an EC50 in assay [1] of 140 nM. The Emax in assay [1] (CHO-K1, 16 h) is 59.3%. Further, on progesterone receptor, the IC50 came out at 85 nM, the “Progesterone receptor” value turned out to be 3.76 and the “CF PR/CF MR” value was 1.88.

For the origin of these results see patent US20110015162A1, “15,16-Methylene-17-hydroxy-19-nor-21-carboxylic acid-steroid Y-lactone derivative, use thereof and medicinal products containing the derivative” (Bayer Schering Pharma Aktiengesellschaft, priority 2007, published 2011).
